Paper PMC11569205, “An allosteric inhibitor of RhoGAP class-IX myosins suppresses the metastatic features of cancer cells” (Nature Communications, 2024)
Like-named read-outs stand apart in the source and are kept apart here.

What was measured:
[1] = target: T1, DdMyo5b (Dictyostelium discoideum, UniProt P54697); assay: biochemical; parameters: binding affinity of compound to purified myosin (technique not given in the excerpts)
T1 construct: gene myoJ; motor domain
Source text: (§1) Structural elements responsible for communicating conformational changes along the myosin ATPase cycle, such as the relay helix, the strut loop, and the W-helix, which form a central hub in the myosin motor domain for effective force production, flank the inhibitor binding site (Fig. 1K). The site buries a total protein surface area of 302.9 Å^2. This pocket is not visible in ligand-free DdMyo2 pre-power stroke structures and only formed by rearrangements of the side chains of residues S266 (β7-loop), E467 (relay helix), and K587 (strut) upon binding of the carbazole (Supplementary Fig. 1A). The aromatic carbazole moiety interacts primarily through hydrophobic contacts with F466 (relay helix) and V630 (W-helix), as well as cation-π interactions with K423 (O-helix) (Supplementary Fig. 1B). Four hydrogen bonds stabilize the inhibitor in its binding position: S465 (relay helix) and K587 (strut loop) interact with the hydroxy group of the ligand, and S465 (relay helix) and the main chain of E487 (relay helix) bind to the nitrogen of the carbazole framework. […] Rabbit fast skeletal muscle heavy meromyosin (skHMM) was prepared as described in ref. [129]. All other myosins were purified from native tissue or recombinant from the following organismal sources: D. discoideum (Dd), O. coniculus (Oc), S. scrofa (Ss), R. norvegicus (Rn), C. elegans (Ce), H. sapiens (Hs). Motor domain constructs of myosin-2, myosin-5a–5b, Ce myosin-9/Rn myosin-9b, were prepared as described previously in refs. [126],[130]–[135]. Hs nonmuscle myosin-2A (NM2a) was purified from SF9 cells using the baculovirus expression system as described in ref. [130] (for more information see Supplementary Table 5). F-actin was prepared according to the protocol by Lehrer and Kerwar[136].

[2] = target: T2, Dd myosin-2 (DdMyo2) (Dictyostelium discoideum, UniProt P08799); assay: biochemical; parameters: binding affinity of compound to purified myosin (technique not given in the excerpts)
T2 construct: gene mhcA; motor domain
T2 sequence (P08799 2-762): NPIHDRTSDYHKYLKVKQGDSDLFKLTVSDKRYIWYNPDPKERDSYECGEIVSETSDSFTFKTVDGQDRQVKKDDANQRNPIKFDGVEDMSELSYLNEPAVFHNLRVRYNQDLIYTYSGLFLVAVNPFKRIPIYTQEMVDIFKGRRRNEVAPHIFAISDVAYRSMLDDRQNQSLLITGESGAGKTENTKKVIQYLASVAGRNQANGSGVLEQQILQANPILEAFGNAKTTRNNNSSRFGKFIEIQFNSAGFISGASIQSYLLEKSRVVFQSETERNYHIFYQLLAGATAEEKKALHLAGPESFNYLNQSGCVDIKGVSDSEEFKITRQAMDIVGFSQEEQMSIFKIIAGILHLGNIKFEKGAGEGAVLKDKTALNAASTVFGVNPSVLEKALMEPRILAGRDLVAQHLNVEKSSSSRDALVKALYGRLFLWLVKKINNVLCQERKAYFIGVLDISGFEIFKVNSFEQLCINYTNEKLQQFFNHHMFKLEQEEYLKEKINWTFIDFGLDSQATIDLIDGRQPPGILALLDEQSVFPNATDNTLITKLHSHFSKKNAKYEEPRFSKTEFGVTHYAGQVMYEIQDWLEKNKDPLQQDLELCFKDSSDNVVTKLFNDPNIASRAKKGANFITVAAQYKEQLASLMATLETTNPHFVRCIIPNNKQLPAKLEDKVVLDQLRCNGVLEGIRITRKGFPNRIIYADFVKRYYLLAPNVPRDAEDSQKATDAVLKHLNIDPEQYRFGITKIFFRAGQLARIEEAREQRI
Source text: as §1

[3] = target: T2, Dd myosin-2 (DdMyo2); assay: biochemical; parameters: inhibition of myosin ATPase activity
Source text: (§2) We set out to identify a myosin class-IX specific inhibitor by screening an in-house compound library comprising halogenated pseudilins and carbazole derivatives, developed to target the ATPase activity of myosins[47],[48]. […] Low micromolar concentrations inhibited Myo9 motor function substantially, reducing sliding velocity and motile fraction of actin filaments in a reproducible and reversible manner (Fig. 1G, H). Importantly, the motor properties of other tested myosins remained unaffected (Fig. 1G). Rabbit fast skeletal muscle heavy meromyosin (skHMM) was prepared as described in ref. [129]. All other myosins were purified from native tissue or recombinant from the following organismal sources: D. discoideum (Dd), O. coniculus (Oc), S. scrofa (Ss), R. norvegicus (Rn), C. elegans (Ce), H. sapiens (Hs). Motor domain constructs of myosin-2, myosin-5a–5b, Ce myosin-9/Rn myosin-9b, were prepared as described previously in refs. [126],[130]–[135]. Hs nonmuscle myosin-2A (NM2a) was purified from SF9 cells using the baculovirus expression system as described in ref. [130] (for more information see Supplementary Table 5). F-actin was prepared according to the protocol by Lehrer and Kerwar[136].

[4] = target: T3, Rn myosin-9b (Myo9b) (Rattus norvegicus, UniProt Q63358); assay: biochemical; parameters: inhibition of myosin ATPase activity
T3 construct: motor domain construct
Source text: as §2

[5] = target: T3, Rn myosin-9b (Myo9b); assay: NADH-coupled basal and actin-activated ATPase assay; type: biochemical
[6] = target: T4, Ce myosin-9 (Caenorhabditis elegans, UniProt F0IWT2); assay: NADH-coupled basal and actin-activated ATPase assay; in vitro actin motility; type: biochemical
T4 construct: gene hum-7; motor domain construct
Source text: NADH-coupled basal and actin-activated ATPase assay; in vitro actin motility on Ce myosin-9 | Inhibitory effect of adhibin on Cemyosin-9 and Rnmyosin-9b basal and actin-activated ATPase activities.

T1 sequence (P54697 whole entry, the tested form may be a part): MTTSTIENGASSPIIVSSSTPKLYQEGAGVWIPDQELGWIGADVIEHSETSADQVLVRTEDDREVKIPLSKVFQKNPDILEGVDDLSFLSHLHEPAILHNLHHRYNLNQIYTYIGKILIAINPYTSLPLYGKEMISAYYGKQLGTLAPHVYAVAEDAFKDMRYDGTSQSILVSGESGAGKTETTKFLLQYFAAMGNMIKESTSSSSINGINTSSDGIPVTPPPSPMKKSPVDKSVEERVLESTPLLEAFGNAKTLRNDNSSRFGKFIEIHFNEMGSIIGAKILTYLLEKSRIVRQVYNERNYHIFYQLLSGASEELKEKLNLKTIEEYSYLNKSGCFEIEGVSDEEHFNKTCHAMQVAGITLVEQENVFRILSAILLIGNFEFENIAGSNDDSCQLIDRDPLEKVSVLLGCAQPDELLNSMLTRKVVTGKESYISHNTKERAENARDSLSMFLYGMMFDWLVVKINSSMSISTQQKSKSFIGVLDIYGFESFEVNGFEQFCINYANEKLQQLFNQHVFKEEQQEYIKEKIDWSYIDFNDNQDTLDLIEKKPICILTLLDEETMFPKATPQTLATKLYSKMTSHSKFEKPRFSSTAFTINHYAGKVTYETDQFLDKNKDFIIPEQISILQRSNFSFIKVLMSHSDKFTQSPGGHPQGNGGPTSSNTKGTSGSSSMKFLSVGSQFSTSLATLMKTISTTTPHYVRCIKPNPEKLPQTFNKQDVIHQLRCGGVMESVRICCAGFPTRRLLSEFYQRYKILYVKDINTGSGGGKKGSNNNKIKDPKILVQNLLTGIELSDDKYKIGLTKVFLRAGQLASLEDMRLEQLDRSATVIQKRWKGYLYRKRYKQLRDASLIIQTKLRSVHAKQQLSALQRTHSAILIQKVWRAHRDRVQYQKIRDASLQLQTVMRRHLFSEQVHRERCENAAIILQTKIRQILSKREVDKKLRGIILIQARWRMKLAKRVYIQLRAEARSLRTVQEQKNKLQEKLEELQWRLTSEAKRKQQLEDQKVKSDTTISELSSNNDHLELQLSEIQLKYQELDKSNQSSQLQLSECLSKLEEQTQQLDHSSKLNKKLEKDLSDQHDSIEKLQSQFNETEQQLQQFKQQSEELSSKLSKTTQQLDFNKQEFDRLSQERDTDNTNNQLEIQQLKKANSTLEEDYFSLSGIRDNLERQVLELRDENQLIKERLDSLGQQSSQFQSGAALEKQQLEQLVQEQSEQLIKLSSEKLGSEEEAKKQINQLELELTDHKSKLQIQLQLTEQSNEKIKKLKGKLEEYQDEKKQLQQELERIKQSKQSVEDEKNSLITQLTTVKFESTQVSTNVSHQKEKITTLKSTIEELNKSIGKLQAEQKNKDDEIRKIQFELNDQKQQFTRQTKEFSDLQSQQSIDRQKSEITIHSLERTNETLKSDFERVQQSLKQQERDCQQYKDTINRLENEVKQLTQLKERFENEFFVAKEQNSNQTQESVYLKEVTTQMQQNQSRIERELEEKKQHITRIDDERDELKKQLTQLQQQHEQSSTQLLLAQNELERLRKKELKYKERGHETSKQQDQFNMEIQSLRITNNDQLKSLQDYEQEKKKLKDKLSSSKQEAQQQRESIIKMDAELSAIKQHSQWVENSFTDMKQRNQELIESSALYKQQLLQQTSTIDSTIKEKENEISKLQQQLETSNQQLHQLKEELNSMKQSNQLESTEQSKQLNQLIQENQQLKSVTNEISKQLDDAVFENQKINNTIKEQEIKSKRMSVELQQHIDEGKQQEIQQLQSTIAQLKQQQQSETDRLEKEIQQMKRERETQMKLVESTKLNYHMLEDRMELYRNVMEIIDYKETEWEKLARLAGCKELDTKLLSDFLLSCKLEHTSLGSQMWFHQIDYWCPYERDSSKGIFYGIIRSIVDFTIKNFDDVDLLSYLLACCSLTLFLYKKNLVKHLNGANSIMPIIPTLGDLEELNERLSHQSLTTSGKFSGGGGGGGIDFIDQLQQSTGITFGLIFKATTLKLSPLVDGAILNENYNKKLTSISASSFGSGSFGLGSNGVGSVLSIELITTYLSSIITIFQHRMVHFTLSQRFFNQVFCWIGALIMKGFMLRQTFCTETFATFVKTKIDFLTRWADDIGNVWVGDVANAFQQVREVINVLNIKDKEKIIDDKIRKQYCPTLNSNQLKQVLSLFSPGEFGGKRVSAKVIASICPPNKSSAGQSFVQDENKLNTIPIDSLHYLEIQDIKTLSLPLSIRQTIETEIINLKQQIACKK
T3 sequence (Q63358 2-954): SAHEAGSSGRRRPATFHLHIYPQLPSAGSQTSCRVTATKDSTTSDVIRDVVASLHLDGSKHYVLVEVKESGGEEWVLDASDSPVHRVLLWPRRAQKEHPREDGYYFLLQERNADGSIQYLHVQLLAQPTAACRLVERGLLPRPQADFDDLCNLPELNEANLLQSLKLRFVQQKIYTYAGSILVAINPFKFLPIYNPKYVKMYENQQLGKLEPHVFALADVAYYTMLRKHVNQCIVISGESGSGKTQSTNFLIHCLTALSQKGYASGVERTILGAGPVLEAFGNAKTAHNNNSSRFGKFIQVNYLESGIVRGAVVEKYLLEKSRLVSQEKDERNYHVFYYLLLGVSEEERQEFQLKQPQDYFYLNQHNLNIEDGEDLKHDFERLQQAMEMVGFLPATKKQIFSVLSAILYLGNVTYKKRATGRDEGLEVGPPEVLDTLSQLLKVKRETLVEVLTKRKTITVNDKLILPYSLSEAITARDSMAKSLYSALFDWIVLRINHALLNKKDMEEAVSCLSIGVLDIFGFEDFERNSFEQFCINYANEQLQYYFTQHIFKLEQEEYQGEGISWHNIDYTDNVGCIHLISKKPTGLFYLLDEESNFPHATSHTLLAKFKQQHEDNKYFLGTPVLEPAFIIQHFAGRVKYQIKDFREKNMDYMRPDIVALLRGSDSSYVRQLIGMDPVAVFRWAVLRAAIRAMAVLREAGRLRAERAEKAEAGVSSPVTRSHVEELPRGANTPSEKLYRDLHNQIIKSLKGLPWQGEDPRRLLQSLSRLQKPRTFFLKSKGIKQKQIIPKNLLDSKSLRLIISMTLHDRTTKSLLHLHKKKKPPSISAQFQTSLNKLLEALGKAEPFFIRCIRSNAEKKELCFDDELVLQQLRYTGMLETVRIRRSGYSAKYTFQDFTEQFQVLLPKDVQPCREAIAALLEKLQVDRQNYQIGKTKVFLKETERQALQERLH
T4 sequence (F0IWT2 entry or part of it): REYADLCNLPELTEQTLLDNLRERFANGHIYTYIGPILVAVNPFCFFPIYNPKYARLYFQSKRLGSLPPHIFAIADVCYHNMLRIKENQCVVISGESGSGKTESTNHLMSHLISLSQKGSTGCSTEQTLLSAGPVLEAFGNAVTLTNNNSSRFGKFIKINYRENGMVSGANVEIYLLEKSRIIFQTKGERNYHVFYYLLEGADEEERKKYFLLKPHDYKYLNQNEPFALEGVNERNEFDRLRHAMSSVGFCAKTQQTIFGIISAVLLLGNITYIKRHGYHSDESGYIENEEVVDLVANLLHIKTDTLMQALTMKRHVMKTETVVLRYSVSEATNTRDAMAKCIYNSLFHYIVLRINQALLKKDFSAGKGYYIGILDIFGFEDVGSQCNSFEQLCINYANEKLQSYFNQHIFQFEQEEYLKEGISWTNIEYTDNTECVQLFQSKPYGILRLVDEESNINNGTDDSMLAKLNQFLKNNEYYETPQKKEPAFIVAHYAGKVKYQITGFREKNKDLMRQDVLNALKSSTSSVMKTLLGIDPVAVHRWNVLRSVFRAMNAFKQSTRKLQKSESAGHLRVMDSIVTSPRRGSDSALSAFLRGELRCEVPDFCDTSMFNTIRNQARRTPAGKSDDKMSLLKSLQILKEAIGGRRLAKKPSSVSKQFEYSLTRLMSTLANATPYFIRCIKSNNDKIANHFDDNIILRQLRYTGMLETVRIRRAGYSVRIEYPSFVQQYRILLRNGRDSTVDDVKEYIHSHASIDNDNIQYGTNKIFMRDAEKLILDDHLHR

Row | Kd ([1]; read-out: KD) [µM] | Kd ([2]; read-out: KD) [µM] | IC50 ([3]; read-out: IC50) [µM] | IC50 [5] [µM] | IC50 [6] [µM] | Structure (SMILES) | Kd [1] [µM] | Kd [2] [µM] | IC50 [3] [µM] | IC50 [4] [µM]
1 | – | – | – | – | – | Cc1ccc2[nH]c3c(O)cc(Br)c(Br)c3c2c1 [compound 5, 3,4-dibromo-6-methyl-9H-carbazol-1-ol] | 33.2 ± 5.2 | 7.3 ± 4.1 | 22.6 ± 7.5 | 2 ± 0.3
2 | 1.5 ± 0.5 | 14.9 ± 3.2 | 37.7 ± 9.4 | 2.5 ± 0.2 | 2.6 ± 0.2 | OCc1cc(Br)cc2c1[nH]c1ccc(Br)cc12 [compound 12, 3,6-dibromo-1-(hydroxymethyl)carbazole] | – | – | – | –
